Read-outs that look alike come from different tables or passages of the source.
Columns and labels:
Streptococcus pneumoniae = assay: Time killing assay; format: cell-based; conditions: 1×MIC; for time to totally eliminate resistant strain: failed up to 240 min of treatment; for time to eradicate susceptible pneumococcal isolate / time to completely kill 10^6 CFU/ml of S. pneumoniae: MHB, 37°C, triplicate; for time to completely kill 10^6 CFU/ml of S. pneumoniae: sampled every 30 min to 240 min
Procedure: The bactericidal activities of peptides were performed as described previously. […] 10μl of bacterial suspensions were removed at various time intervals (30, 60, 90, 120, 150, 180, 210, and 240 min), serially diluted in PBS and plated onto Columbia agar with 5% sheep blood for 20-24hr at 37°C in the presence of 5% CO2 to obtain viable colonies. Erythromycin and ceftriaxone were used as positive control and the assay was performed in triplicate.

[1] = system: S. pneumoniae (30 clinical isolates); format: cell-based, Streptococcus pneumoniae; conditions: for MIC S. pneumoniae (30 clinical isolates), in parentheses: numbers in parentheses are micromolar concentrations; for MIC S. pneumoniae (30 clinical isolates): broth microdilution, CAMHB, 20-24hr, 37°C, 5% CO2, lowest concentration that completely inhibits growth
Text: (§1) Thirty (30) Pneumococcal clinical isolates were obtained from University of Malaya Medical Centre (UMMC). For broad-spectrum activity of AMPs, E. coli ATCC 25922, Staphylococcus aureus ATCC 25923, P. aeruginosa ATCC 15442, Acinetobacter baumanii ATCC 15308, and one clinical isolate of each methicillin resistant S. aureus (MRSA), […], citrobacter spp., and K. pneumoniae were used in this study.
(§2) The minimum inhibitory concentration (MIC) of the peptides against 30 pneumococcal isolates was determined by broth microdilution protocol as indicated by the CLSI guidelines (Clinical and Laboratory Standards Institute). Briefly, bacterial strains were grown for 18–24 hr at 37°C under 5% CO2. Direct suspension of the colonies were made in cationically-adjusted Müeller-Hinton broth (CAMHB) and adjusted to OD 625 0.08–0.1 which corresponds to 1 ~ 2 x10^8 CFU/ml followed by serial ten-fold dilutions to give 1x10^6 CFU/ml. 50μl of bacterial suspension were added to 96-well round bottom microtiter plates containing equal volume of peptides at different concentrations (1.95, 3.90, 7.81, 15.62, 31.25, 62.5, 125, 250μg/ml) and the 96-well plates were incubated for 20-24hr at 37°C in the presence of 5% CO2.

[2] = system: Acinetobacter baumanii ATCC 15308; format: cell-based; conditions: numbers in parentheses are micromolar concentrations
Text: as §1, §2

E. coli ATCC 25922 = format: cell-based; conditions: numbers in parentheses are micromolar concentrations
Text: as §1, §2

Enterococcus cloacae = format: cell-based; conditions: numbers in parentheses are micromolar concentrations
Text: as §1, §2

K. pneumoniae = format: cell-based; conditions: numbers in parentheses are micromolar concentrations
Text: as §1, §2

[3] = system: Methicillin resistant S. aureus (MRSA); format: cell-based; conditions: numbers in parentheses are micromolar concentrations
Text: as §1, §2

P. aeruginosa ATCC 15442 = format: cell-based; conditions: numbers in parentheses are micromolar concentrations
Text: as §1, §2

citrobacter spp = format: cell-based; conditions: numbers in parentheses are micromolar concentrations
Text: as §1, §2

S. aureus ATCC 25923 = format: cell-based, Staphylococcus aureus; conditions: for MIC S. aureus ATCC 25923, in parentheses: numbers in parentheses are micromolar concentrations
Text: as §1, §2

Compound	time to totally eliminate resistant strain (Streptococcus pneumoniae) [min]	time to eradicate susceptible pneumococcal isolate (Streptococcus pneumoniae) [min]	MIC S. pneumoniae (30 clinical isolates), in parentheses ([1]; unit of the source corrected) [µg/mL]	MIC Acinetobacter baumanii ATCC 15308, in parentheses [2]	MIC E. coli ATCC 25922, in parentheses (E. coli ATCC 25922; unit of the source corrected) [µg/mL]	MIC Enterococcus cloacae, in parentheses (Enterococcus cloacae)	MIC K. pneumoniae, in parentheses (K. pneumoniae)	MIC MRSA, in parentheses ([3]; unit of the source corrected) [µg/mL]	MIC P. aeruginosa ATCC 15442, in parentheses (P. aeruginosa ATCC 15442)	MIC citrobacter spp, in parentheses (citrobacter spp)	MIC S. aureus ATCC 25923, in parentheses (S. aureus ATCC 25923; unit of the source corrected) [µg/mL]	MIC S. pneumoniae (30 clinical isolates), in parentheses [1]	MIC E. coli ATCC 25922, in parentheses (E. coli ATCC 25922)	MIC MRSA, in parentheses [3]	MIC S. aureus ATCC 25923, in parentheses (S. aureus ATCC 25923)	MIC S. pneumoniae (30 clinical isolates) [1] [µg/mL]	MIC P. aeruginosa ATCC 15442, in parentheses (P. aeruginosa ATCC 15442; unit of the source corrected) [µg/mL]	time to completely kill 10^6 CFU/ml of S. pneumoniae (Streptococcus pneumoniae) [min]	MIC S. aureus ATCC 25923 (S. aureus ATCC 25923; broth microdilution) [µg/mL]
CO/N=C(\C(=O)N[C@@H]1C(=O)N2C(C(=O)O)=C(CSc3nc(=O)c(=O)[nH]n3C)CS[C@H]12)c1csc(N)n1 [ceftriaxone, reference compound]	> 240	150																	
CC[C@H]1OC(=O)[C@H](C)[C@@H](O[C@H]2C[C@@](C)(OC)[C@@H](O)[C@H](C)O2)[C@H](C)[C@@H](O[C@@H]2O[C@H](C)C[C@H](N(C)C)[C@H]2O)[C@](C)(O)C[C@@H](C)C(=O)[C@H](C)[C@@H](O)[C@]1(C)O [erythromycin, reference compound]	> 240	120																	
FLGGLIKIVPAMICAVRKKC-OH [RN1, ranalexin analog]			250	>250 (>115.7) micromolar	250	>250 (>115.7) micromolar	>250 (>115.7) micromolar	250	>250 (>115.7) micromolar	>250 (>115.7) micromolar	125								
FLGGLIKPVPAMICAVRKKC-OH [RN2, ranalexin analog]				>250 (>116) micromolar		>250 (>116) micromolar	>250 (>116) micromolar		>250 (>116) micromolar	>250 (>116) micromolar		>250 (>116) micromolar	>250 (>116) micromolar	>250 (>116) micromolar	>250 (>116) micromolar				
FLGGLIKPWWPWRR-NH2 [RN7-IN7, hybrid peptide of ranalexin and indolicidin]			31.2 to 62.5	125 (69) micromolar	31.2	>250 (>138) micromolar	>250 (>138) micromolar	31.2		>250 (>138) micromolar	31.2					31.25 to 62.5	62.5	120	
FLGGLIKRPPAMICAVRKKC-OH [RN4, ranalexin analog]				>250 (>113) micromolar		>250 (>113) micromolar	>250 (>113) micromolar		>250 (>113) micromolar	>250 (>113) micromolar		>250 (>113) micromolar	>250 (>113) micromolar	>250 (>113) micromolar	>250 (>113) micromolar				
FLGGLIKRVPAMICAVRKKC-OH [RN3, ranalexin analog]				>250 (>113) micromolar		>250 (>113) micromolar	>250 (>113) micromolar		>250 (>113) micromolar	>250 (>113) micromolar		>250 (>113) micromolar	>250 (>113) micromolar	>250 (>113) micromolar	>250 (>113) micromolar				
LLPWKWPWWKWRR-NH2 [IN1, indolicidin analog]			31.2 to 62.5	>250 (129) micromolar	31.2	>250 (>129) micromolar	>250 (>129) micromolar	31.2		>250 (>129) micromolar	31.2					31.25 to 62.5	31.2	210	
RLPWRWPRRPWRR-NH2 [IN4, indolicidin analog]			250	>250 (>130.4) micromolar	250	>250 (>130.4) micromolar	>250 (>130.4) micromolar	250		>250 (>130.4) micromolar						> 250	125		125
RRPWRWPRWPWRR-NH2 [IN3, indolicidin analog]			62.5	>250 (>125) micromolar	31.2	>250 (>125) micromolar	>250 (>125) micromolar	62.5		>250 (>125) micromolar	31.2						31.2	150	
RRPWRWPWWPWRR-NH2 [IN2, indolicidin analog]			31.2 to 62.5	>250 (>123) micromolar	31.2	>250 (>123) micromolar	>250 (>123) micromolar	31.2		>250 (>123) micromolar	31.2					31.25 to 62.5	31.2	210	

From PMC4457802 (PLoS ONE, 2015)
